From patent US20210121438A1, “METHODS FOR TREATING OR PREVENTING CONFORMATION DISEASES AND METHODS FOR DRUG SCREENING” (GARAGE BRAIN SCIENCE CO., LTD, priority 2018, published 2021)

What was measured:
[1] = system: p53 aggregates in 293T cells; assay: p53 aggregates in 293T cells / p53 strains (immunofluorescence with p53 antibody); type: cell-based; details: 293T cells
Experimental: Immunohistochemistry: Fluorescence staining was performed as described previously (Wang et al., 2012). Cells were transfected with or without plasmids or siRNAs and grown for 24 to 48 hr. Cells were fixed with 3.7% paraformaldehyde in PBS at RT for 15 min and then permeabilized with 0.1% Triton X-100. The fixed cells were incubated with primary antibodies at RT for 2 hr followed by incubation with Cy2- or Cy3-labeled secondary antibodies (Molecular Probes). Slides were mounted using Vectashield DAPI H-1200 (Vector). Cellular fluorescence images were collected using an LSM710 META laser-scanning confocal microscope (Zeiss).
We observed a striking degree of heterogeneity among p53 aggregates in the cytosol of 293T cells by immunofluorescence with a p53 antibody, including long fibers (5-10 μm), short fibers (1.6-3.2 μm) and punctate aggregates (0.5-1 μm in diameter) (FIG. 16a, arrows). The length of the p53 fibers and p53 aggregates were analyzed (FIG. 16b). […] To determine whether these heterogeneous p53 amyloid patterns are inherited or are random conversions, we subcultured and isolated single colonies from heterogeneous pools of cells. […] We obtained four phenotypes shown in FIG. 16a, including long and short fibers, puncta, and diffuse nuclear staining, and these phenotypes were stably propagated (FIG. 16e). We termed these p53 phenotypes of the isolated strains as follows: p53 [L] (Long fibers), p53 [S] (Short fibers), p53 [P] (Puncta) and p53-NVA (No Visible Aggregates).
Additionally, we treated 293T cells with an Aβ amyloid disassembling agent, baicalein, following immunofluorescence staining with anti-p53 antibodies.

SMA mice (Smn−/−SMN2+/−) = assay: Motor function tests in SMA mice (turnover, tube, negative geotaxis); type: in vivo
Description: Mice: A mouse model of SMA was produced by deleting exon 7 of the Smn gene and knock-in of the human SMN2 gene (Smn−/−SMN2+/−). We were able to generate a variant that presents a more severe disease symptomatology through back-crossing to obtain a more homogenous genetic background. This model of severe SMA harbors two copies of the SMN2 transgene (Smn−/−SMN2+/−). The mouse model of SMA was generated through crossing the heterozygous knockout mice (Smn+/−SMN2−/−) with the homozygous knockout mice carrying two copies of the SMN2 transgene (Smn−/−SMN2+/+). SMA mice were subjected to daily intraperitoneal injections of baicalein (40 mg/kg/d in alcohol) or alcohol alone (control) from birth and then subjected to motor function tests and survival analysis. Three behavioral tests, the turnover test, tube test and negative geotaxis test, were conducted to evaluate the motor function of mice with SMA (Smn−/−SMN2+/−) and heterozygous littermates (Smn+/−SMN2+/−), as previously described. In the turnover test, the time required for a mouse to right itself and place all four paws on the ground from a prone position was recorded (the cutoff time was 60 s). The tube test was used to determine hind limb strength according to the posture of the hind limbs and the tail; scores ranged from 0 (the worst) to 4 (the best). In the negative geotaxis test, mice were placed on a 45° incline with their head pointing downward. The responses (turning and climbing) were scored from 0 (the worst) to 4 (the best).
A mouse model of SMA received daily intraperitoneal injections of baicalein ([…]) from birth, and we then assessed the animals using motor function tests and survival analyses to determine whether the in vitro findings were recapitulated in a mouse model in vivo (FIG. 10i). However, after baicalein treatment, the functional performance of SMA mice, including righting time, tube score, and tilting score, was improved at the 6th postnatal day (p<0.05), and the results were similar to heterozygous littermates treated with or without baicalein. […] Our studies provide a method for restoring the functional SMN protein by modulating the folding of the SMNA7 C-terminus and SMA-associated mutants to ensure that the protein performs the cellular functions of full-length SMN.

[2] = system: GFP-TDP-43-IIPLD inclusion-expressing 293T cells; assay: TDP-43-IIPLD misfolded aggregates in transfected 293T cells (microscopy); type: cell-based
Experimental: Cell Culture and Drug Treatment: 293T cells were used throughout the experimental studies. 293T cells were grown in Dulbecco's modified Eagle's medium (DMEM)/F12, which was supplemented with 10% fetal bovine serum, 1% penicillin/streptomycin and 1% L-glutamate. Primary cultures of rat hippocampal neurons were prepared from embryonic day 17 rat embryos as previously described by (Wang et al, TDP-43, the signature protein of FTLD-U, is a neuronal activity-responsive factor. J. Neurochem. 105, 79T-806 (2008)). All procedures for handling the rat were carried out in accordance with the guidelines approved by the Institutional Animal Care and Utilization Committee, Academia Sinica. Hippocampal cells were plated on poly-1-lysine-coated coverslides at low density (10,000 cells per cm2) and cultured in the neurobasal medium/B27 (Invitrogen). The 293T cells were transfected using the calcium phosphate protocol according to the manufacturer's instructions and as previously described by Wang et al. (Wang et al., ProcNatlAcadSci USA. 99, 13583-13588 (2002). All of the plasmid constructs were described in Wang et al., Nature Communication, 2012). 293T cells (1×10^5) were seeded in each well of a six-well plate and incubated overnight in a 37° C. incubator with 5% CO2. To determine the effects of off-pathway stabilizers on the reduction of pathological-like aggregates, the cells were treated with baicalein and EGCG for 12, 24, or 48 h with the indicated concentrations (25 or 50 μM).
GFP-TDP-43 pathological-like (GFP-TDP-43-IIPLD) inclusion-expressing 293T cells were treated with or without 50 μM baicalein for 12 h following microscopic analysis and Western blotting validation. […] (FIG. 2c).

[3] = SMA mice, daily intraperitoneal baicalein 13.6 mg/kg/d from birth, 6th postnatal day, p<0.05

## O=c1cc(-c2ccccc2)oc2cc(O)c(O)c(O)c12 [baicalein]
[1]; 25 μM baicalein
  p53 misfolded aggregates: reduced p53 misfolded aggregates
[1]; baicalein
  spontaneous aggregation of p53: suppressed the spontaneous aggregation of p53
SMA mice (Smn−/−SMN2+/−); 8th postnatal day, p=0.009
  functional performance in the tube test versus control SMA mice: better than that of the control SMA mice
SMA mice (Smn−/−SMN2+/−); 8th postnatal day, p=0.58
  functional performance better than control SMA mice in the negative geotaxis test: not
SMA mice (Smn−/−SMN2+/−); [3]
  righting time (turnover test): improved
  tilting score (negative geotaxis test): improved
  tube score: improved
[2]
  TDP-43-IIPLD aggregates, statistical analysis of dose dependence: dosage-dependent reduction of TDP-43-IIPLD aggregates
[2]; 50 μM
  assembly of TDP-43-IIPLD proteinaceous nucleating particles: inhibited the assembly of TDP-43-IIPLD proteinaceous nucleating particles
